The OPERA property sets (Mansouri et al. 2018)
In brackets after ≈: the same amount, converted by molar mass.

Conditions: not given

SMILES	logP	solubility [mM]
ClCC1(CCl)C2CC(Cl)(Cl)C1(C(Cl)Cl)CC2(Cl)Cl (configuration not stated)	5.79	–
CC(=O)OCN1C(=O)C2CC=CCC2C1=O (configuration not stated)	0.97	–
CCOC(=O)c1ccccc1C(=O)OCC	2.42	–
COc1ccc2[nH]c3c4ccc(Cl)cc4ncc3c2c1	4.49	–
CCOC(=O)CNC(=O)c1cn(CC)c2nc(C)ccc2c1=O	2.07	–
NC(=S)NN=Cc1ccco1	1.64	–
CC(=O)NCCc1c[nH]c2ccccc12	1.41	–
CC(O)C#N (configuration not stated)	-0.94	–
c1ccc2nc3c4ccccc4c4ccccc4c3cc2c1	5.66	–
CC1CCC(=O)N1C (configuration not stated)	-0.07	–
Cc1cn([C@H]2CC[C@@H](CO)O2)c(=O)[nH]c1=S	0.44	–
CC(O)CNc1ccccc1C(N)=O (configuration not stated)	0.62	–
CCCCN(C)N=O	1.08	–
Oc1ccc(Cl)cc1Cc1ccccc1	3.6	0.681 (≈ 149 µg/mL)
c1ccc(CNc2[nH]cnc3ncnc2-3)cc1	1.57	–
CCn1cc(C(=O)O)c(=O)c2cc(F)c(N3CCNCC3)c(F)c21	-0.57	–
CN1CC=C(c2cccc(N)c2)CC1	1.47	–
Brc1cccc(-c2ccccc2)c1	4.85	–
CC(C)=CC1C(C(=O)OCc2coc(Cc3ccccc3)c2)C1(C)C (configuration not stated)	6.14	–

Same assay, conditions: 20 °C

solubility [mM]	SMILES
453 (≈ 54000 µg/mL)	CCC(CO)[N+](=O)[O-] (configuration not stated)
23.9 (≈ 2700 µg/mL)	CCC(Cl)Cl
3.66 (≈ 600 µg/mL)	NC(=O)c1ccccc1C(N)=O
0.594 (≈ 50 µg/mL)	C/C=C/CCC
131 (≈ 15000 µg/mL)	CC1CCC(O)CC1 (configuration not stated)

SMILES	solubility [mM]
CCN(C)N=O	3400 (≈ 300000 µg/mL)
C=CC(=O)NCO	6460 (≈ 653000 µg/mL)
CCCCOCC1CO1 (configuration not stated)	154 (≈ 20000 µg/mL)

Same assay, conditions: 22 °C

SMILES	solubility [mM]
CCOC(=O)CC(SP(=O)(OC)OC)C(=O)OCC (configuration not stated)	23.9 (≈ 7500 µg/mL)
ClC=CCCl (mixture of isomers)	14.5

Same assay, conditions: 22.0 °C

log10 OH rate constant (cm³/molecule/s)	SMILES
-10.8	Cc1ccc(C(C)C)cc1

Same assay, conditions: 23 °C

SMILES	solubility [mM]
C[Si]1(C)O[Si](C)(C)O[Si](C)(C)O[Si](C)(C)O[Si](C)(C)O1	4.58e-05 (≈ 0.017 µg/mL)

Same assay, conditions: 23.0 °C

log10 OH rate constant (cm³/molecule/s)	SMILES
-9.54	CC1=CCCC(C)=CCC(C)(C)C=CC1
-9.7	C=C1CCC=C(C)CC[C@@H]2[C@@H]1CC2(C)C
-10.4	CCCCOCC(C)O (configuration not stated)

SMILES	log10 OH rate constant (cm³/molecule/s)
O=C/C=C/c1ccccc1	-10.3

Same assay, conditions: 24 °C

SMILES	solubility [mM]
Clc1cc(Cl)c(-c2cc(Cl)c(Cl)cc2Cl)cc1Cl	2.63e-06 (≈ 0.00095 µg/mL)
CCCCN(C)N=O	200 (≈ 23200 µg/mL)

Same assay, conditions: 24.0 °C

SMILES	log10 OH rate constant (cm³/molecule/s)
c1ccc2ncccc2c1	-10.9

Same assay, conditions: 25 °C

SMILES	solubility [mM]
Cc1ccc(C(C)C)cc1	0.174 (≈ 23.4 µg/mL)
C=CCCCCCCCC	0.00406 (≈ 0.57 µg/mL)
CN(C)c1ccccc1	12 (≈ 1450 µg/mL)
NC(N)=O	9070 (≈ 545000 µg/mL)
CNC(=O)O/N=C/C(C)(C)S(C)=O (configuration not stated)	136 (≈ 28000 µg/mL)
CC(N)=S	2170 (≈ 163000 µg/mL)
Nc1ccn([C@H]2CC[C@@H](CO)O2)c(=O)n1	362 (≈ 76400 µg/mL)
Clc1ccc(-c2ccc(Cl)c(Cl)c2Cl)cc1Cl	1.04e-05 (≈ 0.0034 µg/mL)
N#CCC#N	2010 (≈ 133000 µg/mL)
COCCOC(=O)c1ccccc1C(=O)OCCOC	30.1 (≈ 8500 µg/mL)
CCCCO[N+](=O)[O-]	9.4 (≈ 1120 µg/mL)
ClC1=C(Cl)C(Cl)(Cl)C(Cl)=C1Cl	0.0066 (≈ 1.8 µg/mL)
Oc1ccc(N=Nc2ccc(N=Nc3ccccc3)c3ccccc23)cc1	0.000979 (≈ 0.345 µg/mL)
CCOc1nc(F)cc2nc(S(=O)(=O)Nc3c(Cl)cccc3C(=O)OC)nn12	0.0372 (≈ 16 µg/mL)
O=C1CCC(N2C(=O)c3ccccc3C2=O)C(=O)N1 (configuration not stated)	2.11 (≈ 545 µg/mL)
Cc1ccc2cc3c(ccc4ccccc43)c3c2c1CC3	1.08e-05 (≈ 0.0029 µg/mL)
CC(C)c1ccccc1-c1ccccc1	0.00306 (≈ 0.6 µg/mL)
c1ccc2ncccc2c1	47.3 (≈ 6110 µg/mL)
NS(=O)(=O)c1cc2c(s1)SCCC2=O	0.281 (≈ 70 µg/mL)
Nc1ccccc1Cl	64 (≈ 8160 µg/mL)
COC(CN(C)C(=O)Nc1nnc(C(C)(C)C)s1)OC	13.6 (≈ 4100 µg/mL)
O=CC=Cc1ccccc1	10.7 (≈ 1420 µg/mL)
Clc1ccc(/N=N/c2ccccc2)cc1	0.00198 (≈ 0.43 µg/mL)
CCCCCCCCCCCCC	2.55e-05 (≈ 0.0047 µg/mL)
CCC(C)=NO	1150 (≈ 100000 µg/mL)
CC(=O)c1ccc(-c2ccccc2)cc1	0.489 (≈ 96 µg/mL)

Same assay, conditions: 25.0 °C

SMILES	log10 OH rate constant (cm³/molecule/s)
O=CC(F)Cl (configuration not stated)	-11.7
COC(F)(C(F)(F)F)C(F)(F)F	-13.8
CCBr	-12.5
COCC(C)O (configuration not stated)	-10.7
C[Si]1(C)O[Si](C)(C)O[Si](C)(C)O[Si](C)(C)O[Si](C)(C)O1	-11.8
c1ccc2c(c1)Oc1ccccc1O2	-10.9
CCC(C)Cl (configuration not stated)	-11.6
CC1CCCO1 (configuration not stated)	-10.7
CC(=O)O[C@@H]1CC2CCC1(C)C2(C)C (some centres not stated)	-10.9
O=C/C=C/C=O	-10.4
OCC(F)(F)C(F)(F)F	-13

Same assay, conditions: 27.0 °C

log10 OH rate constant (cm³/molecule/s)	SMILES
-11.1	CCC(=O)NC
-10.3	Cc1ccc(C=O)o1
-10.3	O=Cc1ccoc1

Same assay, conditions: 30 °C

SMILES	solubility [mM]
Cc1ccc([N+](=O)[O-])cc1	3.22 (≈ 442 µg/mL)
BrC(Br)(Br)Br	0.724 (≈ 240 µg/mL)
CN(C)C	15100 (≈ 890000 µg/mL)
